Experimental findings from patent US20070232615A1, “Chemical Compounds” (priority 2004, published 2007) are described below.

Common to all, as to format: cell-based
One data set has as its target T1, human CXCR4 (Homo sapiens, UniProt P61073).
T1 construct: expressed in transfected cells; host or cells: HEK-293 cells (stably expressing human macrophage scavenger receptor class A type 1), transduced with human CXCR4 BacMam and Gqi5 BacMam baculoviruses
Nature of the data set: Functional FLIPR assay (block of SDF-1 alpha induced [Ca2+]i change). Conditions: HEK-293 cells with human CXCR4 and Gqi5 BacMam; antagonism of SDF-1 alpha; read-out: Functional assay (pIC50) (converted). How it is done: Human embryonic kidney (HEK-293) cells were maintained and harvested as described above. Cells were plated in 96-well, black clear bottom, poly-lysine coated plates at a concentration of 40,000 cells per well in a final volume of 100 ul containing human CXCR4 BacMam (MOI=25) and Gqi5 BacMam (MOI=12.5). The cells were incubated at 37° C., 5% CO2, 95% humidity for 24 h to allow for protein expression.
After the required incubation time the cells were washed once with 50 ul of fresh serum-free DMEM/F12 media containing probenicid. 50 ul of dye solution was then added to the cells (Calcium Plus Assay Kit Dye; Molecular Devices) was dissolved in 200 ml of the above probenicid/BSA containing media and incubated for 1 h. Cell plates were transferred to a Fluorometric Imaging Plate Reader (FLIPR). Upon addition the effect of the compounds on the change in [Ca^2+]i was examined to determine if the compounds were agonists or antagonists (ability to block SDF-1 alpha activity) at the CXCR4 receptor. IC50 values are determined and pKb values are calculated using the Leff and Dougall equation: KB=IC50/((2+([agonist]/EC50ˆb)ˆ1/b−1) Where IC50 is that defined by the antagonist concentration-response curve [agonist] is the EC80 concentration of agonist used EC50 is that defined by the agonist concentration-response curve b is the slope of the agonist concentration-response curve.

For a further data set, the system named is HIV. Nature of the data set: HOS HIV infectivity assay (Table 2, strain not given). Particulars: Human immunodeficiency virus 1, read-out: Activity Level. The procedure, abridged: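 HOS cells expressing hCXCR4/hCCR5/hCD4 and an HIV-LTR-luciferase reporter were preincubated with compound for 1 h in DMEM/2% FCS. They were then infected with HIV-1 Ba-L or IIIB (about 2 million RLU/well) for 96 h at 37° C. Infection was read by luciferase luminescence, and viability in uninfected cultures by CellTiter-Glo.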

The test system of data set [1] is HOS (hCXCR4/hCCR5/hCD4/pHIV-LTR-luciferase) cells and HEK-293 cells expressing HIV-1 gp160 (HXB2 strain). Put plainly: Cell/cell fusion assay (luciferase). Conditions: Homo sapiens, HEK293; 24 h, luciferase readout; read-out: Fusion assay (pIC50) (converted). From the text: The complete coding sequences of HIV-1 tat (GenBank Accession No. X07861) and rev (GenBank Accession No. M34378) were cloned into pcDNA3.1 expression vectors containing G418 and hygromycin resistance genes, respectively. The complete coding sequence of the HIV-1 (HXB2 strain) gp160 envelope gene (nucleotide bases 6225-8795 of GenBank Accession No. K03455) was cloned into plasmid pCRII-TOPO. The three HIV genes were additionally inserted into the baculovirus shuttle vector, pFastBacMam1, under the transcriptional control of the CMV promoter. A construction of the pHIV-I LTR containing mutated NFkB sequences linked to the luciferase reporter gene was prepared by digesting pcDNA3.1, containing the G418 resistance gene, with Nru I and Bam HI to remove the CMV promoter. LTR-luc was then cloned into the Nru I/Bam HI sites of the plasmid vector. Plasmid preparations were performed after the plasmids were amplified in Escherichia coli strain DH5-alpha. The fidelity of the inserted sequences was confirmed by double-strand nucleotide sequencing using an ABI Prism Model 377 automated sequencer.
BacMam Baculovirus Generation
Recombinant BacMam baculoviruses were constructed from pFastBacMam shuttle plasmids by using the bacterial cell-based Bac-to-Bac system. Viruses were propagated in Sf9 (Spodoptera frugiperda) cells cultured in Hink's TNM-FH Insect media supplemented with 10% (v/v) fetal bovine serum and 0.1% (v/v) pluronic F-68 according to established protocols.
Human osteosarcoma (HOS) cells that naturally express human CXCR4 were transfected with human CCR5, human CD4 and the pHIV-LTR-luciferase plasmid using FuGENE 6 transfection reagent. Single cells were isolated and grown under selection condition in order to generate a stable HOS (hCXCR4/hCCR5/hCD4/pHIV-LTR-luciferase) clonal cell line. The cells were maintained in Dulbeccos modified Eagles media supplemented with 10% fetal calf serum (FCS), G418 (400 ug/ml), puromycin (1 ug/ml), mycophenolic acid (40 ug/ml), xanthine (250 ug/ml) and hypoxanthine (13.5 ug/ml) to maintain a selection pressure for cells expressing the LTR-luciferase, hCCR5 and hCD4, respectively. Human embryonic kidney (HEK-293) cells stably transfected to express the human macrophage scavenging receptor (Class A, type 1; GenBank Accession No. D90187), were maintained in DMEM/F-12 media (1:1) supplemented with 10% FCS and 1.5 ug/ml puromycin. The expression of this receptor by the HEK-293 cells enhances their ability to stick to tissue culture treated plasticware.
Transduction of HEK-293 cells
HEK-293 cells were harvested using enzyme-free cell dissociation buffer. The cells were resuspended in DMEM/F-12 media supplemented with 10% FCS and 1.5 ug/ml and counted. Tranductions were performed by direct addition of BacMam baculovirus containing insect cell media to cells. The cells were simultaneously transduced with BacMam baculovirus expressing HIV-1 tat, HIV-1 rev and HIV-1 gp160 (from the HXB2 HIV strain). Routinely an MOI of 10 of each virus was added to the media containing the cells. 2 mM butyric acid was also added to the cells at this stage to increase protein expression in transduced cells. The cells were subsequently mixed and seeded into a flask at 30 million cells per T225. The cells were incubated at 37° C., 5% CO2, 95% humidity for 24 h to allow for protein expression.
Cell/Cell Fusion Assay Format
HEK and HOS cells were harvested in DMEM/F-12 media containing 2% FCS and DMEM media containing 2% FCS, respectively, with no selection agents added. Compounds were plated as 1 ul spots in 100% DMSO on a 96-well CulturPlate plates. HOS cells (50 ul) were added first to the wells, followed immediately by the HEK cells (50 ul). The final concentration of each cell type was 20,000 cells per well. Following these additions, the cells were returned to a tissue culture incubator (37° C.; 5% CO2/95% air) for an additional 24 h.
Measurement of Luciferase Production […]

A further data set relates to HIV-1 IIIB. Put plainly: HOS HIV-1 infectivity assay, IIIB strain. Conditions: Human immunodeficiency virus 1; HOS cells, HIV-1 IIIB (T-tropic, CXCR4 utilizing), 96 h; read-out: HOS (3B). On the procedure:
HOS HIV-1 Infectivity Assay
(§1) Compounds were profiled against two HIV-1 viruses, the M-tropic (CCR5 utilizing) Ba-L strain and the T-tropic (CXCR4 utilizing) IIIB strain. Both viruses were propagated in human peripheral blood lymphocytes. Compounds were tested for there ability to block infection of the HOS cell line (expressing hCXCR4/hCCR5/hCD4/pHIV-LTR-luciferase) by either HIV-1 Ba-L or HIV-1 IIIB. Compound cytotoxicity was also examined in the absence of virus addition.
HOS HIV-1 Infectivity Assay Format
(§2) HOS cells (expressing hCXCR4/hCCR5/hCD4/pHIV-LTR-luciferase) were harvested and diluted in Dulbeccos modified Eagles media supplemented with 2% FCS and non-essential amino acid to a concentration of 60,000 cells/ml. The cells were plated into 96-well plates (100 ul per well) and the plates were placed in a tissue culture incubator (37° C.; 5% CO2/95% air) for a period of 24 h.
(§3) Subsequently, 50 ul of the desired drug solution (4 times the final concentration) was added to each well and the plates were returned to the tissue culture incubator (37° C.; 5% CO2/95% air) for 1 h. Following this incubation 50 ul of diluted virus was added to each well (approximately 2 million RLU per well of virus). The plates were returned to the tissue culture incubator (37° C.; 5% CO2/95% air) and were incubated for a further 96 h.
(§4) Following this incubation the endpoint for the virally infected cultures was quantified following addition of Steady-Glo Luciferase assay system reagent (Promega, Madison, Wis.). Cell viability or non-infected cultures was measured using a CellTiter-Glo luminescent cell viability assay system (Promega, Madison, Wis.). All luminescent readouts are performed on a Topcount luminescence detector (Packard, Meridien, Conn.).

A short description of data set [2]: Compound cytotoxicity in the absence of virus (CellTiter-Glo). Conditions: human; HOS cells, no virus; read-out: Cytotox (pIC50) (converted). On the procedure: as §1, §2, §3, §4
(In general: ATP-based viability assays read luminescence as a measure of living cells.)

pIC50: −log10 of the molar value.

T1 sequence (P61073 whole entry): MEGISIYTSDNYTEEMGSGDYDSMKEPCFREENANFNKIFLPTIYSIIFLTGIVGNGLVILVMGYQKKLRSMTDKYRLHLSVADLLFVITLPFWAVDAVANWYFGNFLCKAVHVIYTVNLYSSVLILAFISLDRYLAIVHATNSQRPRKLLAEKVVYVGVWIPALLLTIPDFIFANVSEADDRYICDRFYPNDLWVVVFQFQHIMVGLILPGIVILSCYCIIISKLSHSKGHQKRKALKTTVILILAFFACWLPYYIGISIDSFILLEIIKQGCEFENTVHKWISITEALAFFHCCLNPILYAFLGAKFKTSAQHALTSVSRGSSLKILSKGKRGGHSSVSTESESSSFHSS

As to `CN(Cc1cn2c(N3CCNCC3)cccc2n1)C1CCCc2cccnc21` (stereo not shown) [Example 10, N-Methyl-N-{[5-(1-piperazinyl)imidazo[1,2-a]pyridin-2-yl]methyl}-5,6,7,8-tetrahydro-8-quinolinamine], the IC50 on human CXCR4 was 6.92 nM; in data set [1], 17.8 nM. The pIC50 was greater than 7.00 with HIV and 7.70 in the data set with HIV-1 IIIB. Moreover, in data set [2], the IC50 at 96 h is greater than 100000 nM.

With `CN(C)CCN(C)c1cccc2nc(CN(C)C3CCCc4cccnc43)cn12` (stereo not shown) [Example 11, N,N,N′-Trimethyl-N′-(2-{[methyl(5,6,7,8-tetrahydro-8-quinolinyl)amino]methyl}imidazo[1,2-a]pyridin-5-yl)-1,2-ethanediamine], the IC50 at human CXCR4 is 33.9 nM; in data set [1], 67.6 nM. In addition, the pIC50 in the data set on HIV is greater than 7.00; with HIV-1 IIIB, 7.49. For the same molecule, the IC50 at 96 h in data set [2] is greater than 100000 nM.

As to `CC1CN(c2cccc3nc(CN(C)C4CCCc5cccnc54)cn23)CC(C)N1` (stereo not shown) [Example 12, N-{[5-(3,5-Dimethyl-1-piperazinyl)imidazo[1,2-a]pyridin-2-yl]methyl}-N-methyl-5,6,7,8-tetrahydro-8-quinolinamine], the IC50 at human CXCR4 was 28.2 nM; in data set [1], 166 nM. For the same molecule, the pIC50 in the data set on HIV was greater than 7.00; in the data set with HIV-1 IIIB, 7.06. Also, in data set [2], the IC50 at 96 h was greater than 100000 nM.

As for `CC1CN(c2cccc3nc(CN(C)C4CCCc5cccnc54)cn23)CC(C)N1C` (stereo not shown) [Example 13, N-Methyl-N-{[5-(3,4,5-trimethyl-1-piperazinyl)imidazo[1,2-a]pyridin-2-yl]methyl}-5,6,7,8-tetrahydro-8-quinolinamine], the IC50 at human CXCR4 is 18.2 nM; in data set [1], 77.6 nM. Further, the pIC50 was greater than 7.00 with HIV and 7.21 in the data set on HIV-1 IIIB. The IC50 at 96 h in data set [2] is greater than 100000 nM.

As to `CC(C)N(Cc1cn2c(N3CCN(C)CC3)cccc2n1)C1CCCc2cccnc21` (stereo not shown) [Example 14, N-(1-Methylethyl)-N-{[5-(4-methyl-1-piperazinyl)imidazo[1,2-a]pyridin-2-yl]methyl}-5,6,7,8-tetrahydro-8-quinolinamine], the IC50 on human CXCR4 is 2 nM; in data set [1], 21.9 nM. Besides, the pIC50 with HIV is greater than 7.00; in the data set on HIV-1 IIIB, 7.89. In addition, in data set [2], the IC50 at 96 h was greater than 100000 nM.

Turning to `CC(C)N1CCN(c2cccc3nc(CN(C(C)C)C4CCCc5cccnc54)cn23)CC1` (stereo not shown) [Example 15, N-(1-Methylethyl)-N-({5-[4-(1-methylethyl)-1-piperazinyl]imidazo[1,2-a]pyridin-2-yl}methyl)-5,6,7,8-tetrahydro-8-quinolinamine], the IC50 at human CXCR4 was 3.63 nM; in data set [1], 79.4 nM. Besides, the values for the pIC50 in the data set on HIV and in the data set on HIV-1 IIIB were greater than 7.00 and 7.42, respectively. The IC50 at 96 h in data set [2] was greater than 100000 nM.

Turning to `CN1CCN(c2cccc3nc(CN(CC(F)(F)F)C4CCCc5cccnc54)cn23)CC1` (stereo not shown) [Example 16, N-{[5-(4-Methyl-1-piperazinyl)imidazo[1,2-a]pyridin-2-yl]methyl}-N-(2,2,2-trifluoroethyl)-5,6,7,8-tetrahydro-8-quinolinamine], the IC50 is 4.37 nM at human CXCR4 and 417 nM in data set [1]. For the same molecule, the pIC50 was 6.30 to 7.00 in the data set with HIV and 6.84 in the data set on HIV-1 IIIB. Further, in data set [2], the IC50 at 96 h is greater than 100000 nM.

As for `CC(C)N1CCN(c2cccc3nc(CN(CC(F)(F)F)C4CCCc5cccnc54)cn23)CC1` (stereo not shown) [Example 17, N-({5-[4-(1-Methylethyl)-1-piperazinyl]imidazo[1,2-a]pyridin-2-yl}methyl)-N-(2,2,2-trifluoroethyl)-5,6,7,8-tetrahydro-8-quinolinamine], the IC50 on human CXCR4 was 8.91 nM; in data set [1] it was 2140 nM. Further, the pIC50 is 6.30 to 7.00 in the data set on HIV and 6.52 in the data set with HIV-1 IIIB. In addition, the IC50 at 96 h in data set [2] is greater than 100000 nM.
